# Results taken from article PMC9481151, “Discovery of new symmetrical and asymmetrical nitrile-containing 1,4-dihydropyridine derivatives as dual kinases and P-glycoprotein inhibitors: synthesis, in vitro assays, and in silico studies” (Journal of Enzyme Inhibition and Medicinal Chemistry, 2022).
# “And” between values parts separate entries of the source, which are not always exact repeats. Identical values can stand only once.
# How the values were obtained:
# TK-10 = experiment: NCI single dose (10 µM) SRB screen; format: cell-based, human; conditions: renal cancer, 48 h
# COLO 205 = experiment: NCI single dose (10 µM) SRB screen; format: cell-based, human; conditions: colon cancer, 48 h
# SK-MEL-28 = experiment: NCI single dose (10 µM) SRB screen; format: cell-based, human; conditions: melanoma, 48 h
# ACHN = experiment: NCI single dose (10 µM) SRB screen; format: cell-based, human; conditions: renal cancer, 48 h
# NCI-H460 = experiment: NCI single dose (10 µM) SRB screen; format: cell-based, human; conditions: non-small cell lung cancer, 48 h
# U251 = experiment: NCI single dose (10 µM) SRB screen; format: cell-based, human; conditions: CNS cancer, 48 h
# SR = experiment: NCI single dose (10 µM) SRB screen; format: cell-based, human; conditions: leukaemia, 48 h
# HL-60(TB) = experiment: NCI single dose (10 µM) SRB screen; format: cell-based, human; conditions: leukaemia, 48 h
# OVCAR-3 = experiment: NCI single dose (10 µM) SRB screen; format: cell-based, human; conditions: ovarian cancer, 48 h
# HS578T = experiment: NCI single dose (10 µM) SRB screen; format: cell-based, human; conditions: breast cancer, 48 h
# Bacillus subtilis = experiment: Agar well diffusion method
# IGROV1 = experiment: NCI single dose (10 µM) SRB screen; format: cell-based, human; conditions: ovarian cancer, 48 h
# Candida albicans = experiment: Agar well diffusion method
# SF-295 = experiment: NCI single dose (10 µM) SRB screen; format: cell-based, human; conditions: CNS cancer, 48 h
# BT-549 = experiment: NCI single dose (10 µM) SRB screen; format: cell-based, human; conditions: breast cancer, 48 h
# HOP-92 = experiment: NCI single dose (10 µM) SRB screen; format: cell-based, human; conditions: non-small cell lung cancer, 48 h
# K-562 = experiment: NCI single dose (10 µM) SRB screen; format: cell-based, human; conditions: leukaemia, 48 h
# NCI-H23 = experiment: NCI single dose (10 µM) SRB screen; format: cell-based, human; conditions: non-small cell lung cancer, 48 h
# Aspergillus flavus = experiment: Agar well diffusion method
# HCC-2998 = experiment: NCI single dose (10 µM) SRB screen; format: cell-based, human; conditions: colon cancer, 48 h
# SK-OV-3 = experiment: NCI single dose (10 µM) SRB screen; format: cell-based, human; conditions: ovarian cancer, 48 h
# MCF7 = experiment: NCI single dose (10 µM) SRB screen; format: cell-based, human; conditions: breast cancer, 48 h
# Pseudomonas aeruginosa = experiment: Agar well diffusion method
# MALME-3M = experiment: NCI single dose (10 µM) SRB screen; format: cell-based, human; conditions: melanoma, 48 h
# T-47D = experiment: NCI single dose (10 µM) SRB screen; format: cell-based, human; conditions: breast cancer, 48 h
# OVCAR-5 = experiment: NCI single dose (10 µM) SRB screen; format: cell-based, human; conditions: ovarian cancer, 48 h
# 786-0 = experiment: NCI single dose (10 µM) SRB screen; format: cell-based, human; conditions: renal cancer, 48 h
# SN12C = experiment: NCI single dose (10 µM) SRB screen; format: cell-based, human; conditions: renal cancer, 48 h
# NCI 60 cancer cell lines = experiment: NCI single dose (10 µM) SRB screen, mean over panel; format: cell-based, human; conditions: mean over 60 cell lines, 48 h
# Staphylococcus aureus = experiment: Agar well diffusion method
# RXF 393 = experiment: NCI single dose (10 µM) SRB screen; format: cell-based, human; conditions: renal cancer, 48 h
# SNB-19 = experiment: NCI single dose (10 µM) SRB screen; format: cell-based, human; conditions: CNS cancer, 48 h
# MDA-MB-468 = experiment: NCI single dose (10 µM) SRB screen; format: cell-based, human; conditions: breast cancer, 48 h
# Escherichia coli = experiment: Agar well diffusion method
# NCI-H226 = experiment: NCI single dose (10 µM) SRB screen; format: cell-based, human; conditions: non-small cell lung cancer, 48 h
# CAKI-1 = experiment: NCI single dose (10 µM) SRB screen; format: cell-based, human; conditions: renal cancer, 48 h
# M14 = experiment: NCI single dose (10 µM) SRB screen; format: cell-based, human; conditions: melanoma, 48 h
# UACC-257 = experiment: NCI single dose (10 µM) SRB screen; format: cell-based, human; conditions: melanoma, 48 h
# SK-MEL-2 = experiment: NCI single dose (10 µM) SRB screen; format: cell-based, human; conditions: melanoma, 48 h
# HCT-15 = experiment: NCI single dose (10 µM) SRB screen; format: cell-based, human; conditions: colon cancer, 48 h
# SNB-75 = experiment: NCI single dose (10 µM) SRB screen; format: cell-based, human; conditions: CNS cancer, 48 h
# KM12 = experiment: NCI single dose (10 µM) SRB screen; format: cell-based, human; conditions: colon cancer, 48 h
# UACC-62 = experiment: NCI single dose (10 µM) SRB screen; format: cell-based, human; conditions: melanoma, 48 h
# OVCAR-4 = experiment: NCI single dose (10 µM) SRB screen; format: cell-based, human; conditions: ovarian cancer, 48 h
# RPMI-8226 = experiment: NCI single dose (10 µM) SRB screen; format: cell-based, human; conditions: leukaemia, 48 h
# PC-3 = experiment: NCI single dose (10 µM) SRB screen; format: cell-based, human; conditions: prostate cancer, 48 h
# CCRF-CEM = experiment: NCI single dose (10 µM) SRB screen; format: cell-based, human; conditions: leukaemia, 48 h
# NCI-H522 = experiment: NCI single dose (10 µM) SRB screen; format: cell-based, human; conditions: non-small cell lung cancer, 48 h
# NCI-H322M = experiment: NCI single dose (10 µM) SRB screen; format: cell-based; conditions: non-small cell lung cancer, 48 h
# UO-31 = experiment: NCI single dose (10 µM) SRB screen; format: cell-based, human; conditions: renal cancer, 48 h
# HCT-116 = experiment: NCI single dose (10 µM) SRB screen; format: cell-based, human; conditions: colon cancer, 48 h
smiles,measurement,setting,value
"CCOC(=O)C1=C(C)NC(C)=C(C(=O)OC(C)(C)C)C1c1cccc(C#N)c1 (racemic) [Compound 2j, (±)-3-Tert-butyl 5-ethyl 4-(3-cyanophenyl)-2,6-dimethyl-1,4-dihydropyridine-3,5-dicarboxylate]",GI% TK-10,TK-10,– (Only GI% ≥ 10 are shown)
same,GI% COLO 205,COLO 205,– (Only GI% ≥ 10 are shown)
same,GI% SK-MEL-28,SK-MEL-28,– (Only GI% ≥ 10 are shown)
same,GI% ACHN,ACHN,– (Only GI% ≥ 10 are shown)
same,GI% NCI-H460,NCI-H460,– (Only GI% ≥ 10 are shown)
same,GI% U251,U251,– (Only GI% ≥ 10 are shown)
same,GI% SR,SR,22%
same,GI% HL-60(TB),HL-60(TB),19%
same,GI% OVCAR-3,OVCAR-3,– (Only GI% ≥ 10 are shown)
same,GI% HS578T,HS578T,– (Only GI% ≥ 10 are shown)
same,zone of inhibition at 1000 µg/mL,"Bacillus subtilis; Bacillus subtilis, 24 h, read-out: Diameter of inhibition zone, B. subtilis",15 mm
same,"% activity index, B. subtilis",Bacillus subtilis; relative to ciprofloxacin,65.2%
same,GI% IGROV1,IGROV1,– (Only GI% ≥ 10 are shown)
same,zone of inhibition at 1000 µg/mL,"Candida albicans; Candida albicans, 24 h, read-out: Diameter of inhibition zone, C. albicans",19 mm
same,"% activity index, C. albicans",Candida albicans; relative to clotrimazole,70% and 70.4%
same,GI% SF-295,SF-295,– (Only GI% ≥ 10 are shown)
same,GI% BT-549,BT-549,– (Only GI% ≥ 10 are shown)
same,GI% HOP-92,HOP-92,– (Only GI% ≥ 10 are shown)
same,GI% K-562,K-562,17%
same,GI% NCI-H23,NCI-H23,– (Only GI% ≥ 10 are shown)
same,zone of inhibition at 1000 µg/mL,"Aspergillus flavus; Aspergillus flavus, 24 h, read-out: Diameter of inhibition zone, A. flavus",20 mm
same,"% activity index, A. flavus",Aspergillus flavus; relative to clotrimazole,80%
same,GI% HCC-2998,HCC-2998,– (Only GI% ≥ 10 are shown)
same,GI% SK-OV-3,SK-OV-3,– (Only GI% ≥ 10 are shown)
same,GI% MCF7,MCF7,– (Only GI% ≥ 10 are shown)
same,zone of inhibition at 1000 µg/mL,"Pseudomonas aeruginosa; Pseudomonas aeruginosa, 24 h, read-out: Diameter of inhibition zone, P. aeruginosa",20 mm
same,"% activity index, P. aeruginosa",Pseudomonas aeruginosa; relative to ciprofloxacin,86% and 86.9%
same,GI% MALME-3M,MALME-3M,– (Only GI% ≥ 10 are shown)
same,GI% T-47D,T-47D,– (Only GI% ≥ 10 are shown)
same,GI% OVCAR-5,OVCAR-5,– (Only GI% ≥ 10 are shown)
same,GI% 786-0,786-0,13%
same,GI% SN12C,SN12C,– (Only GI% ≥ 10 are shown)
same,Mean GI%,NCI 60 cancer cell lines,4%
same,zone of inhibition at 1000 µg/mL,"Staphylococcus aureus; Staphylococcus aureus, 24 h, read-out: Diameter of inhibition zone, S. aureus",18 mm
same,"% activity index, S. aureus",Staphylococcus aureus; relative to ciprofloxacin,75%
same,GI% RXF 393,RXF 393,– (Only GI% ≥ 10 are shown)
same,GI% SNB-19,SNB-19,– (Only GI% ≥ 10 are shown)
same,GI% MDA-MB-468,MDA-MB-468,10%
same,zone of inhibition at 1000 µg/mL,"Escherichia coli; Escherichia coli, 24 h, read-out: Diameter of inhibition zone, E. coli",18 mm
same,"% activity index, E. coli",Escherichia coli; relative to ciprofloxacin,69% and 69.2%
same,GI% NCI-H226,NCI-H226,– (Only GI% ≥ 10 are shown)
same,GI% CAKI-1,CAKI-1,17%
same,GI% M14,M14,– (Only GI% ≥ 10 are shown)
same,GI% UACC-257,UACC-257,– (Only GI% ≥ 10 are shown)
same,GI% SK-MEL-2,SK-MEL-2,– (Only GI% ≥ 10 are shown)
same,GI% HCT-15,HCT-15,– (Only GI% ≥ 10 are shown)
same,GI% SNB-75,SNB-75,22%
same,GI% KM12,KM12,– (Only GI% ≥ 10 are shown)
same,GI% UACC-62,UACC-62,10%
same,GI% OVCAR-4,OVCAR-4,– (Only GI% ≥ 10 are shown)
same,GI% RPMI-8226,RPMI-8226,12%
same,GI% PC-3,PC-3,18%
same,GI% CCRF-CEM,CCRF-CEM,– (Only GI% ≥ 10 are shown)
same,GI% NCI-H522,NCI-H522,13%
same,GI% NCI-H322M,NCI-H322M,– (Only GI% ≥ 10 are shown)
same,GI% UO-31,UO-31,– (Only GI% ≥ 10 are shown)
same,GI% HCT-116,HCT-116,13%
